Each compound was assayed against Bromodomain-containing protein 4 (Homo sapiens, UniProt O60885) (assay: Binding affinity to BRD4 (unknown origin) expressed in Escherichia coli BL21 after 1 hr by proprietary competition assay). Settings: not given.

| Structure (SMILES) | Ki |
| --- | --- |
| CC[C@@H]1C(=O)N(C)c2cnc(Nc3ccc(C(=O)NC4CCN(C)CC4)cc3F)nc2N1C1CCCC1 | 46 nM |
| CC[C@@H]1C(=O)N(C)c2cnc(Nc3ccc(C(=O)NC4CCN(C)CC4)cc3OCc3ccccc3)nc2N1C1CCCC1 | 100 nM |
| CC[C@@H]1C(=O)N(CC)c2cnc(Nc3ccc(C(=O)NC4CCN(C)CC4)cc3OC)nc2N1C1CCCC1 | 470 nM |
| CC[C@@H]1C(=O)N(C)c2cnc(Oc3ccc(C(=O)NC4CCN(C)CC4)cc3OC)nc2N1C1CCCC1 | 99 nM |
| CC[C@@H]1C(=O)N(CC(C)C)c2cnc(Nc3ccc(C(=O)NC4CCN(C)CC4)cc3OC)nc2N1C1CCCC1 | > 10000 nM |
| CC[C@@H]1C(=O)N(C)c2cnc(Nc3ccc(C(=O)NC4CCN(C)CC4)cc3OC)nc2N1CC(C)C | 970 nM |
| CC[C@@H]1C(=O)N(C)c2cnc(Nc3ccc(C(=O)NC4CCN(C)CC4)cc3OCC(C)C)nc2N1C1CCCC1 | 29 nM |
| CC[C@@H]1C(=O)N(Cc2ccccc2)c2cnc(Nc3ccc(C(=O)NC4CCN(C)CC4)cc3OC)nc2N1C1CCCC1 | > 10000 nM |
| CC[C@@H]1C(=O)N(C)c2cnc(Nc3ccc(C(=O)NC4CCN(C)CC4)c(OC)c3)nc2N1C1CCCC1 | 37 nM |
| CC[C@@H]1C(=O)N(C)c2cnc(Nc3ccc(C(=O)NC4CCN(C)CC4)cc3OC3CCCC3)nc2N1C1CCCC1 | 27 nM |
| CC[C@@H]1C(=O)N(C)c2cnc(Nc3ccc(C(=O)NC4CCN(C)CC4)cc3OC)nc2N1Cc1cccc(Br)c1 | 8.7 nM |
| CC[C@@H]1C(=O)Nc2cnc(Nc3ccc(C(=O)NC4CCN(C)CC4)cc3OC)nc2N1C1CCCC1 | 7950 nM |
| CC[C@@H]1C(=O)N(C(C)C)c2cnc(Nc3ccc(C(=O)NC4CCN(C)CC4)cc3OC)nc2N1C1CCCC1 | 4500 nM |
| COc1cc(C(=O)NC2CCN(C)CC2)ccc1Nc1ncc2c(n1)N(C1CCCC1)CC(=O)N2C | 1400 nM |
| COc1cc(C(=O)NC2CCN(C)CC2)ccc1Nc1ncc2c(n1)N(C1CCCC1)[C@H](Cc1ccccc1)C(=O)N2C | > 10000 nM |
| CC[C@@H]1C(=O)N(C)c2cnc(Nc3ccc(C(=O)NC4CCN(C)CC4)cc3)nc2N1C1CCCC1 | 60 nM |

Each compound was assayed against Serine/threonine-protein kinase PLK1 (Homo sapiens, UniProt P53350) (assay: Binding affinity to PLK1 (unknown origin) expressed in HEK293 cells after 1 hr by proprietary competition assay). Settings: not given.
Sequence of Serine/threonine-protein kinase PLK1 (P53350 whole entry): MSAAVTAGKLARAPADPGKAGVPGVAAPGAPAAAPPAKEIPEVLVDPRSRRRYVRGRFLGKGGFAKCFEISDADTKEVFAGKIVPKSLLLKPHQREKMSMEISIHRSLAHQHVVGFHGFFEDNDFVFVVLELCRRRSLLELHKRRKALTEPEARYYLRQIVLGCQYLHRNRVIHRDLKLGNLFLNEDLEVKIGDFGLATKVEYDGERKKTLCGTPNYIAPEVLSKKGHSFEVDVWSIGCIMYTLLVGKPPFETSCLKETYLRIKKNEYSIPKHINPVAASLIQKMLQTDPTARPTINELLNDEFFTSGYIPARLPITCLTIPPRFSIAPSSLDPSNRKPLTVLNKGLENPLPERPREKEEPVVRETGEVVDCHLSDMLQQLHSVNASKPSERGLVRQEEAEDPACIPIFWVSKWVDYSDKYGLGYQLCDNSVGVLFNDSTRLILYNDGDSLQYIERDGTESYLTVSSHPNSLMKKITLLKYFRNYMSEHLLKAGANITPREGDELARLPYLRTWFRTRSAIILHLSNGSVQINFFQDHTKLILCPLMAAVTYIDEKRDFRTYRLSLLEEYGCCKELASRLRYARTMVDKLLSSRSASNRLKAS
Type: cell-based

| Structure (SMILES) | Ki |
| --- | --- |
| CC[C@@H]1C(=O)N(CC)c2cnc(Nc3ccc(C(=O)NC4CCN(C)CC4)cc3OC)nc2N1C1CCCC1 | 0.91 nM |
| CC[C@@H]1C(=O)N(C)c2cnc(Oc3ccc(C(=O)NC4CCN(C)CC4)cc3OC)nc2N1C1CCCC1 | 240 nM |
| CC[C@@H]1C(=O)N(C)c2cnc(Nc3ccc(C(=O)NC4CCN(C)CC4)cc3OC)nc2N1CC(C)C | 6.95 nM |
| CC[C@@H]1C(=O)N(C)c2cnc(Nc3ccc(C(=O)NC4CCN(C)CC4)c(OC)c3)nc2N1C1CCCC1 | 0.52 nM |
| CC[C@@H]1C(=O)N(C)c2cnc(Nc3ccc(C(=O)NC4CCN(C)CC4)cc3OC3CCCC3)nc2N1C1CCCC1 | 0.84 nM |
| CC[C@@H]1C(=O)N(C)c2cnc(Nc3ccc(C(=O)NC4CCN(C)CC4)cc3OC)nc2N1Cc1cccc(Br)c1 | 5.8 nM |
| COc1cc(C(=O)NC2CCN(C)CC2)ccc1Nc1ncc2c(n1)N(C1CCCC1)[C@H](Cc1ccccc1)C(=O)N2C | 4.2 nM |

Each compound was assayed on MV4-11 (assay: Cytotoxicity against human MV4-11 cells after 24 hrs by CellTiter-Blue assay). Settings: MV4-11, 24 h.
Type: functional

| Structure (SMILES) | GI50 |
| --- | --- |
| CC[C@@H]1C(=O)N(C)c2cnc(Nc3ccc(C(=O)NC4CCN(C)CC4)cc3F)nc2N1C1CCCC1 | 4 nM |
| CC[C@@H]1C(=O)N(C)c2cnc(Nc3ccc(C(=O)NC4CCN(C)CC4)cc3OCc3ccccc3)nc2N1C1CCCC1 | 356 nM |
| CC[C@@H]1C(=O)N(C)c2cnc(Nc3ccc(C(=O)NC4CCN(C)CC4)cc3OC)nc2N1C1CCCC1 [BI-2536] | 15.2 nM |
| CC[C@@H]1C(=O)N(CC)c2cnc(Nc3ccc(C(=O)NC4CCN(C)CC4)cc3OC)nc2N1C1CCCC1 | 392 nM |
| CC[C@@H]1C(=O)N(C)c2cnc(Oc3ccc(C(=O)NC4CCN(C)CC4)cc3OC)nc2N1C1CCCC1 | 1340 nM |
| CC[C@@H]1C(=O)N(CC(C)C)c2cnc(Nc3ccc(C(=O)NC4CCN(C)CC4)cc3OC)nc2N1C1CCCC1 | 2530 nM |
| CC[C@@H]1C(=O)N(C)c2cnc(Nc3ccc(C(=O)NC4CCN(C)CC4)cc3OC)nc2N1CC(C)C | 40 nM |
| CC[C@@H]1C(=O)N(C)c2cnc(Nc3ccc(C(=O)NC4CCN(C)CC4)cc3OCC(C)C)nc2N1C1CCCC1 | 154 nM |
| CC[C@@H]1C(=O)N(Cc2ccccc2)c2cnc(Nc3ccc(C(=O)NC4CCN(C)CC4)cc3OC)nc2N1C1CCCC1 | 7280 nM |
| CC[C@@H]1C(=O)N(C)c2cnc(Nc3ccc(C(=O)NC4CCN(C)CC4)c(OC)c3)nc2N1C1CCCC1 | 15 nM |
| C[C@@H](Oc1cc(-n2cnc3ccc(CN4CCN(C)CC4)cc32)sc1C(N)=O)c1ccccc1C(F)(F)F [GSK-461364] | 679 nM |
| CC[C@@H]1C(=O)N(C)c2cnc(Nc3ccc(C(=O)NC4CCN(C)CC4)cc3OC3CCCC3)nc2N1C1CCCC1 | 240 nM |
| CC[C@@H]1C(=O)N(C)c2cnc(Nc3ccc(C(=O)NC4CCN(C)CC4)cc3OC)nc2N1Cc1cccc(Br)c1 | 675 nM |
| CC[C@@H]1C(=O)Nc2cnc(Nc3ccc(C(=O)NC4CCN(C)CC4)cc3OC)nc2N1C1CCCC1 | 219 nM |
| CC[C@@H]1C(=O)N(C(C)C)c2cnc(Nc3ccc(C(=O)NC4CCN(C)CC4)cc3OC)nc2N1C1CCCC1 | 2670 nM |
| Cc1sc2c(c1C)C(c1ccc(Cl)cc1)=N[C@@H](CC(=O)OC(C)(C)C)c1nnc(C)n1-2 | 80 nM |
| COc1cc(C(=O)NC2CCN(C)CC2)ccc1Nc1ncc2c(n1)N(C1CCCC1)CC(=O)N2C | 219 nM |
| COc1cc(C(=O)NC2CCN(C)CC2)ccc1Nc1ncc2c(n1)N(C1CCCC1)[C@H](Cc1ccccc1)C(=O)N2C | 1870 nM |
| CC[C@H]1C(=O)N(C)c2cnc(Nc3ccc(C(=O)NC4CCN(C)CC4)cc3OC)nc2N1C1CCCC1 | 19 nM |
| CC[C@@H]1C(=O)N(C)c2cnc(Nc3ccc(C(=O)NC4CCN(C)CC4)cc3)nc2N1C1CCCC1 | 3 nM |

Source: ChEMBL document CHEMBL3608255 (ACS Med Chem Lett, 2015)
